Measured values from ChEMBL document CHEMBL1145157, “Synthesis and structure-activity relationships of soluble 7-substituted 3-(3,5-dimethoxyphenyl)-1,6-naphthyridin-2-amines and related ureas as dual inhibitors of the fibroblast growth factor receptor-1 and vascular endothelial growth factor receptor-2 tyrosine kinases” (J Med Chem, 2005).

Assays:
[1] = biological target: Platelet-derived growth factor receptor (PDGFr) (Rattus norvegicus, UniProt P20786+Q05030); experiment: Inhibition of PDGF-dependent rat glioma cell proliferation; format: functional
[2] = biological target: Platelet-derived growth factor receptor beta (Mus musculus, UniProt P05622); experiment: Inhibition of glutamate/tyrosine (4:1) copolymer phosphorylation by mouse platelet-derived growth factor receptor-beta
[3] = biological target: Proto-oncogene tyrosine-protein kinase Src (Gallus gallus, UniProt P00523); experiment: Inhibition of glutamate/tyrosine (4:1) copolymer phosphorylation by avian c-Src tyrosine kinase
[4] = biological target: Vascular endothelial growth factor receptor 2 (Homo sapiens, UniProt P35968); experiment: Inhibition of glutamate/tyrosine (4:1) copolymer phosphorylation by human VEGFR 2 in DELFIA assay
[5] = biological target: Vascular endothelial growth factor receptor (Homo sapiens, UniProt P17948+P35916+P35968); experiment: Inhibition of VEGF-stimulated human umbilical vein endothelial cell proliferation; format: functional, cell-based

Sequence of Platelet-derived growth factor receptor beta (P05622 whole entry): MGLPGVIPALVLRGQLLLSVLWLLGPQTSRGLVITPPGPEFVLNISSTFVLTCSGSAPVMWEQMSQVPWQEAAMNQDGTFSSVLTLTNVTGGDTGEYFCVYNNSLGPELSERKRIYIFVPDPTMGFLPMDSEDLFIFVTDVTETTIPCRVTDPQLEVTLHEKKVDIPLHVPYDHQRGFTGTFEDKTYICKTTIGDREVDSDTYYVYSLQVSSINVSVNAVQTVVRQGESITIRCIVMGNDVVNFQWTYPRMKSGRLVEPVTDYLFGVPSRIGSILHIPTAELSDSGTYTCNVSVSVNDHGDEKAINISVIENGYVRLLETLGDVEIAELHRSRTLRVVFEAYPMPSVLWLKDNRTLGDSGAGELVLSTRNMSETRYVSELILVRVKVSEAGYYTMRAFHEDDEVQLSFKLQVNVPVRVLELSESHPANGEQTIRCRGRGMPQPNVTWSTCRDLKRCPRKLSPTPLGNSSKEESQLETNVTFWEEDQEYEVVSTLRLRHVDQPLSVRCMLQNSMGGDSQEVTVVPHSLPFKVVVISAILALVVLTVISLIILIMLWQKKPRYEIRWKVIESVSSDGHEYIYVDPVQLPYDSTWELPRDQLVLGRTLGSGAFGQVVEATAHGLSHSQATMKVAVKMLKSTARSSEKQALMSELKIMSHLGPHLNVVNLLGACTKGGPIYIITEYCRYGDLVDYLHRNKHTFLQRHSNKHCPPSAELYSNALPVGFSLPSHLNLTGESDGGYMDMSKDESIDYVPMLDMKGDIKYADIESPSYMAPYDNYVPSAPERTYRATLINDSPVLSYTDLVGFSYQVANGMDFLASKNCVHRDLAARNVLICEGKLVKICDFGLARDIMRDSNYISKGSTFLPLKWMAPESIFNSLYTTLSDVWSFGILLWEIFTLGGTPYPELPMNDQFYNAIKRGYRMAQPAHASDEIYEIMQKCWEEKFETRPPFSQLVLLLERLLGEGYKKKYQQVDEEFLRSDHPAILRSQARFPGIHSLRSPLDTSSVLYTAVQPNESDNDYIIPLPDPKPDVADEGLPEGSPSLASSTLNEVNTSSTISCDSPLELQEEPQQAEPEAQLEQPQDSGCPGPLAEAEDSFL
Sequence of Vascular endothelial growth factor receptor 2 (P35968 whole entry): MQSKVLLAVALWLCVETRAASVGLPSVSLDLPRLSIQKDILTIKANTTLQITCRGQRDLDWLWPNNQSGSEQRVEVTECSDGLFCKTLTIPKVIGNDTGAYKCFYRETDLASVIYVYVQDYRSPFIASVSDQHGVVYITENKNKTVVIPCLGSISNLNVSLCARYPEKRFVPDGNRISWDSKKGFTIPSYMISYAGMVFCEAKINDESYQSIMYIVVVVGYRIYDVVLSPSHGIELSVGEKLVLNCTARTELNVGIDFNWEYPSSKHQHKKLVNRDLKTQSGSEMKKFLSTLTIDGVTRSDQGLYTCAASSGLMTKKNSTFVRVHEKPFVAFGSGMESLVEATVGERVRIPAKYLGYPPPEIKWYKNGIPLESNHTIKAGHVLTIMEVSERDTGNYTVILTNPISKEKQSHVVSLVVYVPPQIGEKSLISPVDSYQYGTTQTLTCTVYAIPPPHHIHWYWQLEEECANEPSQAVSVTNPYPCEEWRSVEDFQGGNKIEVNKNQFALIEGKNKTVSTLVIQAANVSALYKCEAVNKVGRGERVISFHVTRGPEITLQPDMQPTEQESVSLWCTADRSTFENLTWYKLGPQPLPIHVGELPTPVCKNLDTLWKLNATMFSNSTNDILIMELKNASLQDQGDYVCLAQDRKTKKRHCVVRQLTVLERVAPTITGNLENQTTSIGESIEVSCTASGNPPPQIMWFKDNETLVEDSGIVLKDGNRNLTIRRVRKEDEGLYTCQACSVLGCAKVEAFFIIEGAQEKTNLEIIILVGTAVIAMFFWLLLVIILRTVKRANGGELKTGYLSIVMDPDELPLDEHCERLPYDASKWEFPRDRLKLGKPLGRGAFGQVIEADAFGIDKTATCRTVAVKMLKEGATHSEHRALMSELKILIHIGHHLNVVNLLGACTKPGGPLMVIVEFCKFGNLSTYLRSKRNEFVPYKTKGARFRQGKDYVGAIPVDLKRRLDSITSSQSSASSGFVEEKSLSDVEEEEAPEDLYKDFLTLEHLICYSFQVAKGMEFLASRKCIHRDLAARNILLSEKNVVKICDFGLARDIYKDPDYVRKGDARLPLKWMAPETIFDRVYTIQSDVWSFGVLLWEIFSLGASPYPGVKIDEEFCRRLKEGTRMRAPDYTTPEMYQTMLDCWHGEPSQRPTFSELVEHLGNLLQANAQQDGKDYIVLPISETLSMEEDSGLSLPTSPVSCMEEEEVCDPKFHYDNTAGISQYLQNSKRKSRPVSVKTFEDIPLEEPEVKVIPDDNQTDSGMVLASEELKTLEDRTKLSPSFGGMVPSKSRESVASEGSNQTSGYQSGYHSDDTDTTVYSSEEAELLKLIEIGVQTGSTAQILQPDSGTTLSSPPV

SMILES | IC50 [1] [µM] | IC50 [2] [µM] | IC50 [3] [µM] | IC50 [4] [µM] | IC50 [5] [µM]
COc1cc(OC)cc(C2Cc3cnc(N(CCCOCc4ccccc4)C(C)=O)cc3N=C2NC(=O)NC(C)(C)C)c1 (stereo unspecified) |  | > 50 | > 50 |  | 
COc1cc(OC)cc(-c2cc3cnc(NCCCN4CCN(C)CC4)nc3nc2NC(=O)NC(C)(C)C)c1 | 7.9 | 31 | 26 |  | 
COc1cc(OC)cc(-c2cc3cnc(NCCCCOc4ccccc4)cc3nc2NC(=O)NC(C)(C)C)c1 |  | > 50 | > 50 |  | 
COc1cc(OC)cc(-c2cc3cnc(N(CCCCOCc4ccccc4)C(C)=O)cc3nc2NC(=O)NC(C)(C)C)c1 |  | > 50 | > 50 |  | 
COc1cc(OC)cc(-c2cc3cnc(N(CCCCO)C(C)=O)cc3nc2NC(=O)NC(C)(C)C)c1 |  | > 50 | > 50 |  | 
CCNC(=O)Nc1nc2nc(NCCCN3CCN(C)CC3)ncc2cc1-c1cc(OC)cc(OC)c1 | 12 | 45 | 35 |  | 
COc1cc(OC)cc(C2Cc3cnc(N(CCCCOCc4ccccc4)C(C)=O)cc3N=C2NC(=O)NC(C)(C)C)c1 (stereo unspecified) |  | > 50 | > 50 |  | 
COc1cc(OC)cc(-c2cc3cnc(NCCCCCOc4ccccc4)cc3nc2NC(=O)NC(C)(C)C)c1 |  | > 50 | > 50 |  | 
COc1cc(OC)cc(C2Cc3cnc(N(CCCCCOCc4ccccc4)C(C)=O)cc3N=C2NC(=O)NC(C)(C)C)c1 (stereo unspecified) |  | > 50 | > 50 |  | 
COc1cc(OC)cc(-c2cc3cnc(N(CCCOCc4ccccc4)C(C)=O)cc3nc2NC(=O)NC(C)(C)C)c1 |  | > 50 | > 50 |  | 
COc1cc(OC)cc(-c2cc3cnc(NCCCOc4ccccc4)cc3nc2NC(=O)NC(C)(C)C)c1 |  | > 50 | > 50 |  | 
COc1cc(OC)cc(-c2cc3cnc(NCCCN4CCN(C)CC4)cc3nc2N)c1 | 9.1 | 50 | > 50 |  | 
COc1cc(OC)cc(C2Cc3cnc(N(CCCCO)C(C)=O)cc3N=C2NC(=O)NC(C)(C)C)c1 (stereo unspecified) |  | > 50 | > 50 |  | 
COc1cc(OC)cc(C2Cc3cnc(N(CCCCCO)C(C)=O)cc3N=C2NC(=O)NC(C)(C)C)c1 (stereo unspecified) |  | > 50 | > 50 |  | 
COc1cc(OC)cc(-c2cc3cnc(NCCCO)cc3nc2NC(=O)NC(C)(C)C)c1 | 1.8 | 32 | > 50 |  | 
COc1cc(OC)cc(-c2cc3cnc(NCCCN4CCOCC4)cc3nc2NC(=O)NC(C)(C)C)c1 | 3.4 |  | > 50 |  | 
COc1cc(OC)cc(-c2cc3cnc(N(CCCO)C(C)=O)cc3nc2NC(=O)NC(C)(C)C)c1 |  | > 50 | > 50 |  | 
COc1cc(OC)cc(C2Cc3cnc(N(CCCO)C(C)=O)cc3N=C2NC(=O)NC(C)(C)C)c1 (stereo unspecified) |  | > 50 | > 50 |  | 
COc1cc(OC)cc(-c2cc3cnc(N(CCCCCO)C(C)=O)cc3nc2NC(=O)NC(C)(C)C)c1 |  | > 50 | > 50 |  | 
COc1cc(OC)cc(-c2cc3cnc(NCCCO)nc3nc2NC(=O)NC(C)(C)C)c1 | 11 | > 50 | > 50 |  | 
COc1cc(OC)cc(-c2cc3cnc(NCCCCCO)cc3nc2NC(=O)NC(C)(C)C)c1 | 3.4 | 11 | > 50 |  | 
COc1cc(OC)cc(-c2cc3cnc(N(CCCCCOCc4ccccc4)C(C)=O)cc3nc2NC(=O)NC(C)(C)C)c1 |  | > 50 | > 50 |  | 
COc1cc(OC)cc(-c2cc3cnc(NCCCCO)cc3nc2NC(=O)NC(C)(C)C)c1 | 1.2 | 23 | > 50 |  | 

More lines, in order of falling IC50 [3], values ahead:

IC50 [1] [µM] | IC50 [2] [µM] | IC50 [3] [µM] | IC50 [4] [µM] | IC50 [5] [µM] | SMILES
5.9 | > 50 | 26 |  |  | CCN(CC)CCCCNc1cc2nc(N)c(-c3cc(OC)cc(OC)c3)cc2cn1
> 25 | 27 | 22 |  |  | CCNC(=O)Nc1nc2nc(NCCCCN(CC)CC)ncc2cc1-c1cc(OC)cc(OC)c1
2.7 | 15 | 21 |  |  | COc1cc(OC)cc(-c2cc3cnc(NCCCCN4CCOCC4)cc3nc2NC(=O)NC(C)(C)C)c1
17 | 14 | 20 | 0.12 | 0.19 | CCN(CC)CCCCNc1ncc2cc(-c3cc(OC)cc(OC)c3)c(NC(=O)NC(C)(C)C)nc2n1 [PD-173074]
2.9 | > 50 | 16 |  |  | COc1cc(OC)cc(-c2cc3cnc(NCCCCCN4CCOCC4)cc3nc2NC(=O)NC(C)(C)C)c1
4 | 18 | 16 |  |  | CCN(CC)CCCNc1cc2nc(NC(=O)NC(C)(C)C)c(-c3cc(OC)cc(OC)c3)cc2cn1
7.5 | 30 | 14 |  |  | CCNC(=O)Nc1nc2cc(NCCCN3CCN(C)CC3)ncc2cc1-c1cc(OC)cc(OC)c1
1.8 | 16 | 9.1 |  |  | COc1cc(OC)cc(-c2cc3cnc(NCCCN4CCN(C)CC4)cc3nc2NC(=O)NC(C)(C)C)c1
3.5 | 6.5 | 7 |  |  | CCNC(=O)Nc1nc2cc(NCCCCN(CC)CC)ncc2cc1-c1cc(OC)cc(OC)c1
 | > 50 | 6.8 |  |  | CN1CCN(CCCNc2cc3nc(NCCCN4CCN(C)CC4)c(-c4ccccc4)cc3cn2)CC1
0.98 | 27 | 6.1 |  |  | COc1cc(OC)cc(-c2cc3cnc(NCCCCCN4CCN(C)CC4)cc3nc2NC(=O)NC(C)(C)C)c1
2.1 | 2.6 | 4.6 |  |  | CCN(CC)CCCCNc1cc2nc(NC(=O)NC(C)(C)C)c(-c3cc(OC)cc(OC)c3)cc2cn1
1.3 | 3.6 | 4.1 |  |  | COc1cc(OC)cc(-c2cc3cnc(NCCCCN4CCN(C)CC4)cc3nc2NC(=O)NC(C)(C)C)c1
1.5 | 5 | 3.6 |  |  | CCN(CC)CCCCCNc1cc2nc(NC(=O)NC(C)(C)C)c(-c3cc(OC)cc(OC)c3)cc2cn1
 | 8.8 | 1.6 |  |  | CN1CCN(CCCNc2cc3nc(N)c(-c4ccccc4)cc3cn2)CC1
 | 12 | 1.4 |  |  | CCN(CC)CCCCNc1cc2nc(N)c(-c3ccccc3)cc2cn1
 | 1.2 | 0.23 |  |  | CN1CCN(CCCNc2cc3nc(NC(=O)NC(C)(C)C)c(-c4ccccc4)cc3cn2)CC1
 | 0.45 | 0.11 |  |  | CCN(CC)CCCCNc1cc2nc(NC(=O)NC(C)(C)C)c(-c3ccccc3)cc2cn1
 | 4.7 | 0.069 |  |  | CN1CCN(CCCNc2cc3nc(N)c(-c4c(Cl)cccc4Cl)cc3cn2)CC1
 | 4 | 0.042 |  |  | CCN(CC)CCCCNc1cc2nc(N)c(-c3c(Cl)cccc3Cl)cc2cn1
 | 0.54 | 0.019 |  |  | CCNC(=O)Nc1nc2cc(NCCCN3CCN(C)CC3)ncc2cc1-c1c(Cl)cccc1Cl
 | 0.62 | 0.019 |  |  | CN1CCN(CCCNc2cc3nc(NC(=O)NC(C)(C)C)c(-c4c(Cl)cccc4Cl)cc3cn2)CC1
 | 0.16 | 0.014 |  |  | CCNC(=O)Nc1nc2cc(NCCCCN(CC)CC)ncc2cc1-c1c(Cl)cccc1Cl
 | 0.48 | 0.014 |  |  | CCN(CC)CCCCNc1cc2nc(NC(=O)NC(C)(C)C)c(-c3c(Cl)cccc3Cl)cc2cn1
